In ChEMBL document CHEMBL1141167, “Antitumor activity of new substituted 3-(5-imidazo[2,1-b]thiazolylmethylene)-2-indolinones and study of their effect on the cell cycle” (2005):
Several values for one entry are separate records, joined by “and”; a condition that tells them apart may be missing. Identical values can stand only once.

Tests used:
[1] = tested on: CNS cell; assay: Growth inhibitory concentration dissolved in DMSO against human CNS cell line at 10E-4 M concentration; type: functional
[2] = tested on: Colon cell; assay: Total growth inhibition of human Colon cell line at 10E-4 M concentration; type: functional; parameters: unit not given here
[3] = tested on: NSCLC; assay: Total growth inhibition of human NSCLC cell line at 10E-4 M concentration; type: functional
[4] = tested on: Breast carcinoma cell; assay: Total growth inhibition of human Breast cell line at 10E-4 M concentration; type: functional
[5] = tested on: Panel NCI-60 (60 carcinoma cell lines); assay: Total growth inhibition of human MG-MID cell line at 10E-4 M concentration; type: functional
[6] = tested on: Ovarian carcinoma cell; assay: Total growth inhibition of human Ovarian cell line at 10E-4 M concentration; type: functional
[7] = tested on: Melanoma cell; assay: Total growth inhibition of human Melanoma cell line at 10E-4 M concentration; type: functional
[8] = tested on: Prostate cell; assay: Total growth inhibition of human Prostate cell line at 10E-4 M concentration; type: functional
[9] = tested on: Prostate cell; assay: Growth inhibitory concentration dissolved in DMSO against human Prostate cell line at 10E-4 M concentration; type: functional
[10] = tested on: Ovarian carcinoma cell; assay: Growth inhibitory concentration dissolved in DMSO against human Ovarian cell line at 10E-4 M concentration; type: functional
[11] = tested on: Melanoma cell; assay: Growth inhibitory concentration dissolved in DMSO against human Melanoma cell line at 10E-4 M concentration; type: functional
[12] = tested on: Colon cell; assay: Growth inhibitory concentration dissolved in DMSO against human Colon cell line at 10E-4 M concentration; type: functional
[13] = tested on: NSCLC; assay: Growth inhibitory concentration dissolved in DMSO against human NSCLC cell line at 10E-4 M concentration; type: functional; parameters: unit not given here
[14] = tested on: Renal cell; assay: Growth inhibitory concentration dissolved in DMSO against human Renal cell line at 10E-4 M concentration; type: functional; parameters: unit not given here
[15] = tested on: Breast carcinoma cell; assay: Growth inhibitory concentration dissolved in DMSO against human Breast cell line at 10E-4 M concentration; type: functional
[16] = tested on: Panel NCI-60 (60 carcinoma cell lines); assay: Growth inhibitory concentration dissolved in DMSO against human MG-MID cell line at 10E-4 M concentration; type: functional
[17] = tested on: Colon cell; assay: Cytotoxic effect dissolved in DMSO against Colon cell line at 10E-4 M concentration; type: functional, Homo sapiens
[18] = tested on: Breast carcinoma cell; assay: Cytotoxic effect dissolved in DMSO against Breast cell line at 10E-4 M concentration; type: functional, Homo sapiens
[19] = tested on: Panel NCI-60 (60 carcinoma cell lines); assay: Cytotoxic effect dissolved in DMSO against MG-MID cell line at 10E-4 M concentration; type: functional, Homo sapiens
[20] = tested on: Ovarian carcinoma cell; assay: Cytotoxic effect dissolved in DMSO against Ovarian cell line at 10E-4 M concentration; type: functional, Homo sapiens
[21] = tested on: Melanoma cell; assay: Cytotoxic effect dissolved in DMSO against Melanoma cell line at 10E-4 M concentration; type: functional, Homo sapiens

Structure (SMILES)	pGI50 (-log GI50, M) [1]	pGI50 (negative log molar GI50) [9]	pGI50 (negative log of GI50 in M) [10]	pGI50 (-log molar GI50) [11]	pGI50 (negative log of molar GI50) [12]	GI50 [13]	GI50 [14]	pGI50 (-log GI50, M) [15]	GI50 [16]	other results
COc1ccc2c(c1)/C(=C\c1c(C)nc3sc(C)cn13)C(=O)N2C	5.46	5.06	5.16	5.26	5.49	5.11	5.32	5.6	5.35	TGI [2]: 4.55 and 4.59; TGI [3]: 4.4; TGI [4]: 4.87; TGI [5]: 4.46; TGI [6]: 4.42; TGI [7]: 4.45; TGI [8]: 4.1; LC50 [17]: 4.09; LC50 [18]: 4.03; LC50 [19]: 4.03; LC50 [20]: 4.02; LC50 [21]: 4.13
COc1cc2c(cc1C)NC(=O)/C2=C/c1c(C)nc2sc(C)cn12	4.08	4.23	4.12	4.22	4.21	4.24	4.09	4.33	4.22	
